Patent US20070149505A1, “Method of Inhibiting Adhesion Formation” (SmithKline Beecham Corporation, priority 2001, published 2007)
Where “and” joins values, the source holds several entries; their conditions need not be identical. Equal values may be shown once.

System: uterine horn adhesions
Assay: rabbit uterine horn model of adhesion formation, oral + local (gel) COMPOUND 1 study
Assay type: in vivo, New Zealand White rabbits
Design: key to tenacity of the adhesions score (in parentheses), Right Horn, Bowel / tenacity of the adhesions score (in parentheses), Right Horn, Itself / tenacity of the adhesions score (in parentheses), Left Horn, Itself / tenacity of the adhesions score (in parentheses), Right Horn, Left / tenacity of the adhesions score (in parentheses), Left Horn, Bowel / tenacity of the adhesions score (in parentheses), Left Horn, Right / tenacity of the adhesions score (in parentheses), Right Horn, Bladder / tenacity of the adhesions score (in parentheses), Left Horn, Bladder: 0=No Adhesions; 1=mild, easily dissectable adhesions; 2=moderate adhesions; non-dissectable, does not tear the organ; 3=dense adhesions; non-dissectable, tears organ when removed; key to Overall score: overall adhesion score; 1 = mild, 1.5+ slightly tougher/more extensive
Settings: for Overall, (group summary): group value ± spread, overall scores analyzed by rank order analysis
Method: The compounds of the instant invention are tested in known models of adhesion formation. These test systems include a rabbit sidewall model of adhesion formation as described in Rogers, et al., J. Invest. Surg., 9:388-391 (1996) and Rodgers, et al., […], 69(3):403-408 (1998); a rat model for adhesion formation as described in Harris, et al., Surgery, 117:663-669 (1995); and a rabbit animal model used to examine laparoscopic adhesion prevention. The rabbit uterine horn model may also be used to test the use of the instant vitronectin inhibiting compounds as inhibitors of adhesion formation. The experimental details and results using this model are detailed below.
Animals: New Zealand White rabbits, 2.4-2.7 kg, were purchased and quarantined for at least 2 days prior to use. The rabbits were randomized into appropriate control and treatment groups (see experimental designs below). The rabbits were housed on a 12:12 light:dark cycle with food and water available ad libitum. Each treatment group in all studies contained 8-10 animals.
Adhesion Model: The animals that received COMPOUND 1 or vehicle according to the experimental design (below). The rabbits that received placebo at surgery received two doses of vehicle orally. Rabbits were anesthetized with a mixture of 55 mg/kg ketamine hydrochloride and 5 mg/kg Rompum intramuscularly. Following preparation for sterile surgery, a midline laparotomy was performed. The uterine horns were exteriorized and traumatized by abrasion of the serosal surface with gauze until punctate bleeding developed. Ischemia of both uterine horns was induced by removal of the collateral blood supply. The remaining blood supply to the uterine horns was the ascending branches of the utero-vaginal arterial supply of the myometrium. The midline muscle and skin incision were closed.
After 7 or 14 days, the rabbits were terminated and adhesions were scored on a site and rabbit basis. Specifically, the percentage of the area of the horns adherent to various organs was determined. In addition, the tenacity of the adhesions was scored using the following system:
1=mild, easily dissectable adhesions
3=dense adhesions; non-dissectable, tears organ when removed
An overall score which took into account all of the above data was given to each rabbit. The following scoring system was used:
0.5+ Light, filmy pelvic adhesions involving only one organ, typically only 1 or 2 small adhesions
1.0+ Light, filmy adhesions, not extensive although slightly more extensive than 0.5
1.5+ Adhesions slightly tougher and more extensive than a 1 rating
2.0+ Tougher adhesions, a little more extensive, uterine horns usually have adhesions to both bowel and bladder
2.5+ Same as 2, except the adhesions are usually not filmy at any site and more extensive
3.0+ Tougher adhesions than 2, more extensive, both horns are attached to the bowel and bladder, some movement of the uterus possible
3.5+ Same as 3, but adhesions slightly more extensive and tougher
4.0+ Severe adhesions, both horns attached to the bowel and bladder, unable to move the uterus without tearing the adhesions
The rabbits were scored by two independent observers that were blinded to the prior treatment of the animal. If there was disagreement as to the score to be assigned to an individual animal, the higher score was given.
Statistical Analysis: The tenacity and overall scores were analyzed by rank order analysis and analysis of variance on the ranks. The percentage area of the horns involved to the various organs were compared by Student's t test.
[…] received two loading doses of 60 mg/kg COMPOUND 1 orally prior to surgery. At the end of the procedure, the animals received either nothing (surgical control), or 12 ml of placebo (10% CMC) or one of two doses (1 mg/ml or 0.1 mg/ml) of COMPOUND 1 at the site of surgical injury.
Oral+local study: Two loading doses of COMPOUND 1 (60 mg/kg, po) were administered orally prior to surgery. […]

[1] = 1 mg/ml COMPOUND 1, 1 Week Necropsy Time, group mean ± spread
[2] = 1 mg/ml COMPOUND 1, 1 Week Necropsy Time, individual rabbit
[3] = 1 mg/ml COMPOUND 1, 1 Week Necropsy Time, individual rabbit, dash = site adhesion free
[4] = 1 mg/ml COMPOUND 1, 2 Week Necropsy Time, group mean ± spread
[5] = 1 mg/ml COMPOUND 1, 2 Week Necropsy Time, individual rabbit
[6] = 1 mg/ml COMPOUND 1, 2 Week Necropsy Time, individual rabbit, dash = site adhesion free
[7] = 1 mg/ml COMPOUND 1, listed after Control/Placebo 1 Week
[8] = 1 mg/ml COMPOUND 1, listed after Control/Placebo 2 Weeks

SMILES: O=C(O)C[C@@H]1Cc2ccc(OCCCNc3ccccn3)cc2CN(CC(F)(F)F)C1=O [COMPOUND 1, (S)-3-oxo-8-[3-(pyridin-2-ylamino)-1-propyloxy]-2-(2,2,2-trifluoroethyl)-2,3,4,5-tetrahydro-1H-2-benzazepine-4-acetic acid]
- % Sites Adhesion Free (0.1 mg/ml COMPOUND 1, listed after Control/Placebo 2 Weeks): 38.75%
- % Horn Involved, Left Horn, Bladder [1]: 0.0 ± 0.0%
- % Horn Involved, Left Horn, Bowel [1]: 18.0 ± 4.2%
- % Horn Involved, Left Horn, Itself [1]: 18.0 ± 4.7%
- % Horn Involved, Left Horn, Right [1]: 15.0 ± 4.0%
- % Horn Involved, Right Horn, Bladder [1]: 3.0 ± 1.5%
- % Horn Involved, Right Horn, Bowel [1]: 19.0 ± 3.8%
- % Horn Involved, Right Horn, Itself [1]: 10.0 ± 4.2%
- % Horn Involved, Right Horn, Left [1]: 15.0 ± 4.0%
- Overall, (group summary) (1 mg/ml COMPOUND 1, 1 Week Necropsy Time): 21.3 ± 3.9
- Overall score [2]: 1.0 (3×) and 0.5 and 1.5 (5×) and 2.0
- tenacity of the adhesions score (in parentheses), Left Horn, Bowel [2]: 1
- tenacity of the adhesions score (in parentheses), Left Horn, Itself [2]: 1
- tenacity of the adhesions score (in parentheses), Left Horn, Right [2]: 1 (6×) and 2
- tenacity of the adhesions score (in parentheses), Right Horn, Bladder [2]: 1
- tenacity of the adhesions score (in parentheses), Right Horn, Bowel [2]: 1
- tenacity of the adhesions score (in parentheses), Right Horn, Itself [2]: 1
- tenacity of the adhesions score (in parentheses), Right Horn, Left [2]: 1 (6×) and 2
- % Horn Involved, Left Horn, Bowel [3]: 30% (4×) and 20% (3×)
- % Horn Involved, Left Horn, Itself [3]: 20% (2×) and 30% (3×) and 10% and 40%
- % Horn Involved, Left Horn, Right [3]: 20% (2×) and 10% (2×) and 30% (3×)
- % Horn Involved, Right Horn, Bladder [3]: 10%
- % Horn Involved, Right Horn, Bowel [3]: 30% (4×) and 10% and 20% (3×)
- % Horn Involved, Right Horn, Itself [3]: 20% (2×) and 10% (2×) and 40%
- % Horn Involved, Right Horn, Left [3]: 20% (2×) and 10% (2×) and 30% (3×)
- % Horn Involved, Left Horn, Bladder [4]: 4.0 ± 2.7%
- % Horn Involved, Left Horn, Bowel [4]: 17.0 ± 5.2%
- % Horn Involved, Left Horn, Itself [4]: 18.0 ± 4.2%
- % Horn Involved, Left Horn, Right [4]: 5.0 ± 3.4%
- % Horn Involved, Right Horn, Bladder [4]: 4.0 ± 2.2%
- % Horn Involved, Right Horn, Bowel [4]: 13.0 ± 4.0%
- % Horn Involved, Right Horn, Itself [4]: 13.0 ± 5.0%
- % Horn Involved, Right Horn, Left [4]: 5.0 ± 3.4%
- Overall, (group summary) (1 mg/ml COMPOUND 1, 2 Week Necropsy Time): 21.2 ± 5.5
- Overall score [5]: 1.0 (5×) and 2.5 and 1.5 (2×) and 0.5 and 2.0
- tenacity of the adhesions score (in parentheses), Left Horn, Bladder [5]: 2 and 1
- tenacity of the adhesions score (in parentheses), Left Horn, Bowel [5]: 2 (2×) and 1 (4×)
- tenacity of the adhesions score (in parentheses), Left Horn, Itself [5]: 1 (6×) and 2 (2×)
- tenacity of the adhesions score (in parentheses), Left Horn, Right [5]: 2 and 1
- tenacity of the adhesions score (in parentheses), Right Horn, Bladder [5]: 1
- tenacity of the adhesions score (in parentheses), Right Horn, Bowel [5]: 1 (6×) and 2
- tenacity of the adhesions score (in parentheses), Right Horn, Itself [5]: 1 (4×) and 2
- tenacity of the adhesions score (in parentheses), Right Horn, Left [5]: 2 and 1
- % Horn Involved, Left Horn, Bladder [6]: 20%
- % Horn Involved, Left Horn, Bowel [6]: 30% (4×) and 10% and 40%
- % Horn Involved, Left Horn, Itself [6]: 20% (3×) and 30% (2×) and 10% (2×) and 40%
- % Horn Involved, Left Horn, Right [6]: 30% and 20%
- % Horn Involved, Right Horn, Bladder [6]: 10% (2×) and 20%
- % Horn Involved, Right Horn, Bowel [6]: 10% (4×) and 30% (3×)
- % Horn Involved, Right Horn, Itself [6]: 20% and 30% (2×) and 10% and 40%
- % Horn Involved, Right Horn, Left [6]: 30% and 20%
- # Sites Adhesion Free [7]: 36
- % Sites Adhesion Free [7]: 45.0%
- # Sites Adhesion Free [8]: 45
- % Sites Adhesion Free [8]: 56.25%
